Test results published in US7605149B1, “Modulation of the phospholipase A2 pathway as a therapeutic” (University of South Florida, priority 1998, dated 2009).

What was measured:
[1] = system: NGF-β differentiated PC12 cells; assay: [3H]AA release in neuronal cells; assay type: cell-based, rat; conditions: FIG. 25
Description: Measurement of [^3H]AA release in neuronal cells (cultured differentiated PC12 cells). A rat pheochromocytoma cell line (PC12) was grown in Kahn's modification of F12 medium supplemented with 10% fetal calf serum, 100 U/mL penicillin and […] streptomycin. PC12 cells were seeded at 35,000 cells/well and differentiated with 60 ng/mL NGF-β for 5-6 days and then maintained with 5 ng/mL NGF-β thereafter. PC12 cells were treated with 0.4 μCi/mL of [^3H]AA for 18 h and were washed multiple times with 1 mL of complete medium to remove unincorporated [^3H]AA. Cells were then treated with 1 μM of Aβ1-40 or 40 U/mL of sPLA2 for 5 h. Cell culture supernatants were collected each hour following treatment and radioactivity was quantified as described above.
(§1) Statistical analysis. Analysis of variance (ANOVA) was used to analyze the data, with post-hoc comparisons of means carried out where appropriate by Sheffe's or Bonferonni's methods. Levene's test for equality of variance followed by t-test for independent samples was used for single mean comparisons. Alpha levels were set at 0.05 for all analyses. Analyses were performed using SPSS for Windows release 9.5.

[2] = system: rat aortae (aortic rings); assay: Vessel bath vasoactivity assay: ET-1-induced vasoconstriction of rat aortic rings and its enhancement by Aβ or sPLA2; assay type: cell-based
Description: Vessel experiments. Freshly dissected aortae were prepared from normal male Sprague-Dawley rats (7-8 months old, purchased from Zivic Miller, Zelienople, Pa.) as previously described by Paris et al, Exp Neurol 1998 and Exp Neurol 1999. Rat aortae were segmented into rings and suspended in Kreb's buffer on hooks connected to a tensiometer linked to a MacLab system. Aortic rings were equilibrated for 2 hours, in 7 mL tissue baths containing Kreb's buffer oxygenated with 95% O2: 5% CO2, and thermoregulated to 37° C. A baseline tension of 2 g was applied to each ring, and the first set of aortic rings was pretreated with the various compounds named above either alone or in combination with Aβ peptides. After 5 minutes of incubation in the presence or absence of Aβ, this first set of vessels was subjected to a dose range of ET-1 (from 1 nM to 5 nM). A second set of vessels was treated with 1 μM of Aβ peptides prior to the addition of ET-1. A third set (control) received only ET-1 treatment. Each ET-1 dose was added only after the constriction response to the previous dose had reached a plateau. In all cases the means ±1 standard error (SE) of the percentage vasoconstriction increase over baseline were determined for each dose of ET-1 used.
as §1, with “methods. As previously described (Paris et al., Neurosci Lett, 1998), a significant interactive term by ANOVA was taken as evidence that both drug x and Aβ are modulating a common signal transduction pathway. […]” for “methods.”

[3] = system: intact rat aortae (aortic rings); assay: [3H]AA release in intact rat aortae; assay type: cell-based; conditions: 5 minutes, then ET-1 dose range
Description: Measurement of [^3H]AA release in intact rat aortae. Aortic rings (1.5 mm long) were placed in 1 mL of physiological saline solution (PSS, containing 130 mM NaCl, 5 mM KCl, 1.5 mM CaCl2, 1.2 mM MgCl2, 10 mM HEPES, and 10 mM glucose adjusted to pH 7.2 with NaOH) and incubated with 2.5 μCi of [^3H]AA (specific activity of 91.8 Ci/mmol) for 24 h at 4° C. Rat aortae were subsequently washed in 50 mL of Kreb's buffer and then subjected to the vasoactivity assay. Initial background [^3H]AA release was determined following 30 min of equillibration for each aortic ring prior to treatment by removing 200 μL of Kreb's buffer (total volume of 7 mL each) from each bath, and measuring radioactivity (in cpm) after the addition of 1 mL of scintillant (EcoLume, ICN Inc., Calif.) using a liquid scintillation counter (1209 Rackbeta, WALLAC Inc., Md.). Subsequently, aortic rings were treated with sPLA2 alone or Aβ1-40 (1 μM) in the presence or absence of a MEK1/2 inhibitor (PD 98059) or a cPLA2 inhibitor (AACOCF3) for 5 min, or went untreated for the same length of time (control). Quantification of [^3H]AA release was then preformed as described above. All aortic rings were then subjected to a dose range of ET-1 (1, 2.5, and 5 nM), and radioactivity was measured 5 min after the first dose of ET-1 (1 nM), and 20 min after the second (2.5 nM) and third (5 nM) doses of ET-1. Radioactivity incorporated into each ring was determined by placing the aortic ring in 1 mL of scintillant and assaying as described above. Results are expressed as the means ±1 SE of the percentage of [^3H]AA incorporated for each aortic ring [([^3H]AA released—[^3H]AA initial background)/incorporated [^3H]AA].
as §1, with “methods. As previously described (Paris et al., Neurosci Lett, 1998), a significant interactive term by ANOVA was taken as evidence that both drug x and Aβ are modulating a common signal transduction pathway. […]” for “methods.”

[4] = system: N9 microglia; assay: [3H]AA release in cultured microglial cells; assay type: cell-based, murine; conditions: FIG. 24
Description: Measurement of [^3H]AA release in cultured cells. Microglial cells were cultured as described above, seeded at 50,000 cells/well in 6-well plates (Falcon, France), and incubated with 0.4 μCi/mL [^3H]AA for 18 h. Cells were washed multiple times with 1 mL of complete medium and were then treated with 1 μM of Aβ1-40 or 10 U/mL of sPLA2 for 5 h. Cell culture supernatants were collected each hour following treatment and radioactivity was quantified as described above.
as §1, with “methods. As previously described (Paris et al., Neurosci Lett, 1998), a significant interactive term by ANOVA was taken as evidence that both drug x and Aβ are modulating a common signal transduction pathway. […]” for “methods.”

[5] = system: p38 MAPK in differentiated PC12 cells; assay: Immunolocalization of activated p38 MAPK in neuronal cells; assay type: cell-based, rat; conditions: 10 and 20 min, FIG. 26
Description: Immunolocalization of activated p38 MAPK in neuronal cells. Cells were treated as described above, and were plated on glass cover-slips which had been soaked in 10 μg/mL of mouse laminin. Following differentiation, neuronal cells were treated with soluble Aβ1-40 (5 μM) or anasomycin (20 μM, a known stimulator of p38 MAPK) for 10 and 20 min, and immediately fixed in 4% paraformaldehyde in 0.1 M PBS, pH 7.4 for 30 min at 4° C. Cells were washed multiple times in PBS, and incubated for 3 h with a phospho-specific antibody recognizing active active p38 MAPK. Cells were then washed multiple times in PBS and incubated with a secondary HRP-conjugated antibody. Immunostaining was performed using the DAKO ABC kit, cells were counterstained with hematoxylin-eosin, and cells were then observed under a microscope.

[6] = system: N9 microglial cells; assay: Leukotriene B4 (LTB4) ELISA on microglial cell supernatants; assay type: cell-based, murine; conditions: 500 nM, 18 hours; FIG. 23
Description: Leukotriene -B4 (LTB4) enzyme-linked immunoabsorbant assay (ELISA). Quantitative determination of LTB4 levels was made using a competitive binding ELISA (R&D Systems, Minneapolis, Minn.) designed to measure LTB4 in cell culture supernatants (as described in Paris et al., Exp Neurol 1999). A murine microglial cell line (N9) was provided by Dr. Paola Ricciardi-Castagnoli (Cellular Pharmacology Center, Milan, Italy) and were grown in RPMI medium supplemented with five percent fetal calf serum, 2 mM glutamine, 100 U/mL penicillin, […] streptomycin and 0.05 mM 2-mercaptoethanol. Microglial cells were seeded at 50,000 cells/well in 6-well plates (Falcon, France) and treated with Aβ1-40 (500 nM), drugs which oppose the PLA2/AA/5-LOX/COX-2 pathway, or untreated (control) and incubated for 18 hours. Cell supernatants were then collected and diluted 10-fold in assay buffer. 50 μL of diluted samples were then used in the assay, and each sample was assayed in duplicate. Manipulations were performed in accordance with the manufacturer's instruction. A spectramax 250 spectrophotometer (Molecular Devices, San Diego, USA) was used to measure absorbance at 405 nm and a standard curve was plotted using a 4-parameter model.
as §1, with “methods. As previously described (Paris et al., Neurosci Lett, 1998), a significant interactive term by ANOVA was taken as evidence that both drug x and Aβ are modulating a common signal transduction pathway. […]” for “methods.”

[7] = system: rat aortae (aortic rings); conditions: freshly solubilized; previously shown (Crawford et al., 1998); cited from earlier work

## type I sPLA2: secretory porcine pancreatic PLA2 (type I sPLA2), purchased from Sigma
[1]; 40 U/mL for 5 h
  [3H]AA release in neuronal cells: induces the release of [^3H]AA
[2]; 1 U/mL, 5 minutes prior to ET-1 dose range, FIG. 6
  effect on ET-1-induced vasoconstriction: able to enhance the vasoconstriction induced by ET-1
[2]; added directly into the vessel bath, without ET-1
  intrinsic vasoactive properties: does not display intrinsic vasoactive properties
[3]; 10 U/mL, FIG. 20
  [3H]AA release from aortic rings: increased release of [^3H]AA
[4]; 10 U/mL for 5 h
  [3H]AA release in N9 microglia: induces the release of [^3H]AA

## COc1ccc(C[C@H]2NC[C@H](O)[C@H]2OC(C)=O)cc1 [anisomycin]
[5]; 20 μM
  activation of p38 MAPK (phospho-specific immunostaining): brown immunostaining is intensified, and a strong nuclear staining is evident

## Aβ1-40: soluble β-amyloid peptide containing forty amino acids, obtained from QCB
[6]
  microglial LTB4 release: increased release of LTB4
[1]; 1 μM for 5 h
  [3H]AA release in neuronal cells: stimulates AA release from neuronal cells
[2]; 50 nM dose, across 2.5 nM and 5 nM ET-1, FIG. 1
  enhancement of ET-1-induced vasoconstriction versus Aβ-free condition: significant difference
[2]; 1 μM, 5 minutes prior to ET-1 (1, 2.5, 5 nM), FIG. 2
  duration of ET-1-induced vasoconstriction (vasotension t=0 to 10 minutes after 5 nM ET-1): induces a long-lasting vasoconstriction
[2]; freshly solubilized peptide
  lowest dose giving sustained constriction / enhancement of ET-1-induced vasoconstriction: ≤ 50 nM
[3]; Aβ1-40 1 μM, FIG. 21
  [3H]AA release from aortic rings: enhances the release of [^3H]AA from aortic rings
[5]; Aβ1-40 5 μM
  activation of p38 MAPK (phospho-specific immunostaining): increases the phosphorylation of p38 MAPK
[4]; 1 μM for 5 h
  [3H]AA release in N9 microglia: stimulates AA release from N9 microglia
[7]
  magnitude of constriction induced by ET-1 in isolated mammalian vessels: increase the magnitude of constriction induced by ET-1
